The record followed here is US12344612B2, “Bicyclic ketone compounds and methods of use thereof” (Genentech, Inc., priority 2019, dated 2025).

The target in this assay is human RIP1 kinase domain (2-375) (Homo sapiens (Human), UniProt Q13546). Nature of the assay: RIP1 kinase inhibition biochemical assay (Transcreener ADP, fluorescence polarization). The following applies: apparent Ki (Morrison tight-binding fit); 50 nM enzyme, 50 μM ATP, 2 hours incubation. On the procedure: RIP1 Kinase Inhibition Assays (Biochemical Assay)
Chain of human RIP1 kinase domain (2-375) (Q13546 2-375): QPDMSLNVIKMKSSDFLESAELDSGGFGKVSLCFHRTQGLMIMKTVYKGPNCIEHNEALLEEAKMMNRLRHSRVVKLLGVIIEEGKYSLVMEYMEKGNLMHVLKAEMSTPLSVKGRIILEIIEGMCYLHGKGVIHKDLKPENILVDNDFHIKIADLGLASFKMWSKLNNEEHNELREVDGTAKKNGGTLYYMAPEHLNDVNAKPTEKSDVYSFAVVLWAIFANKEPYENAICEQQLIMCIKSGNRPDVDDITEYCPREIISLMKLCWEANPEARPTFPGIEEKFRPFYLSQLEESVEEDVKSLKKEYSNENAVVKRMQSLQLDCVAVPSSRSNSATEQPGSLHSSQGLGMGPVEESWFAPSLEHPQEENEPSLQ
The compounds of the present invention were tested for their capacity to inhibit RIP1K activity as described below.
The ability of the receptor interacting protein kinase (RIPK1) to catalyze the hydrolysis of adenosine-5′-triphosphate (ATP) is monitored using the Transcreener ADP (adenosine-5′-diphosphate) assay (BellBrook Labs). Purified human RIP1 kinase domain (2-375) (50 nM) derived from a baculovirus-infected insect cell expression system is incubated with test compounds for 2 hours in 50 mM Hepes buffer (pH 7.5) containing 30 mM MgCl2, 1 mM dithiothreitol, 50 μM ATP, 0.002% Brij-35, and 0.5% dimethyl sulfoxide (DMSO). Reactions are quenched by the addition of 1× Bell Brooks Stop buffer B (20 mM Hepes (ph7.5), 40 mM ethylenediaminetetraacetic acid and 0.02% Brij-35) containing an additional 12 mM EDTA and 55 ug/mL ADP2 antibody and 4 nM ADP-AlexaFluor® 633 tracer. The tracer bound to the antibody is displaced by the ADP generated during the RIP1K reaction, which causes a decrease in fluorescence polarization that is measured by laser excitation at 633 nm with a FP microplate reader M1000. Fractional activity was plotted against test article concentration. Using Genedata Screener software (Genedata; Basel, Switzerland), the data were fit to the tight-binding apparent inhibition constant (Ki^app) Morrison equation [Williams, J. W. and Morrison, J. F. (1979) The kinetics of reversible tight-binding inhibition. Methods Enzymol 63: 437-67]. The following equation was used to calculate fractional activity and Ki^app:
[formula] where [E]T and [I]T are the total concentrations of active enzyme and test article, respectively.
Exemplary compounds of the present invention are provided in Table 1 along with their physiochemical characterization and in vitro RIP1 kinase inhibitory activity data. “Method” in the first column of each table refers to the synthetic method(s) used to prepare each compound as shown in the Examples above.

In the case of `CC(C)(CO)C(=O)c1nc2n(n1)[C@H](c1ccccc1)C[C@@H]2F` [Example 4, 3-hydroxy-2,2-dimethyl-1-((5S,7S)-7-fluoro-5-phenyl-6,7-dihydro-5H-pyrrolo[1,2-b][1,2,4]triazol-2-yl)propan-1-one], the Ki was 31 nM.
With `O=C(c1nc2n(n1)[C@H](c1cccc(Cl)c1)C[C@@H]2F)C1CC1` (single isomer, unassigned) [Example 9], the Ki stood at 6.5 nM.
The figure for `N#Cc1cccc([C@@H]2C[C@H](F)c3nc(C(=O)C4CC4)nn32)c1` (single isomer, unassigned) [Example 8] is 28 nM; for `CC1(C)OCC2CC21C(=O)c1nc2n(n1)[C@H](c1ccccc1)C[C@@H]2F` (mixture of isomers) [Example 3, (2,2-dimethyl-3-oxabicyclo[3.1.0]hexan-1-yl)-[rac-(5S,7S)-7-fluoro-5-phenyl-6,7-dihydro-5H-pyrrolo[1,2-b][1,2,4]triazol-2-yl]methanone] it is 84 nM; for `CC(=O)N1CC(C(=O)c2nc3n(n2)[C@H](c2ccccc2)C[C@@H]3F)C1` (single isomer, unassigned) [Example 7] it is 130 nM.
In the case of `CC(C)(COC(F)F)C(=O)c1nc2n(n1)[C@H](c1ccccc1)C[C@@H]2F` [Example 5, 3-(difluoromethoxy)-2,2-dimethyl-1-((5S,7S)-7-fluoro-5-phenyl-6,7-dihydro-5H-pyrrolo[1,2-b][1,2,4]triazol-2-yl)propan-1-one], the Ki was less than 5 nM.
Take `CCC(=O)c1nc2n(n1)[C@H](c1cnn(C)c1)C[C@@H]2F` (single isomer, unassigned) [Example 6]: the Ki was 25 nM.
For `O=C(c1nc2n(n1)[C@H](c1cncc(F)c1)C[C@@H]2F)C1CC1` (single isomer, unassigned) [Example 1], the Ki came out at 9 nM.
As for `O=C(c1nc2n(n1)[C@@H](c1cncc(F)c1)C[C@H]2F)C1CC1` (single isomer, unassigned) [Example 2], the Ki is greater than 10000 nM.
